Laboratory results as given in US20230127839A1, “COMPOUNDS AND COMPOSITIONS FOR TREATING CONDITIONS ASSOCIATED WITH STING ACTIVITY” (IFM Due, Inc., priority 2019, published 2023).

Biological target: T1, hSTING (Homo sapiens, UniProt Q86WV6, G230A/H232R/R293Q/R71H)
T1 construct: host or cells: THP1-Dual KO-IFNAR2 cells
Test: STING reporter assay (luciferase) in THP1-Dual KO-IFNAR2 cells stimulated with 2'3'cGAMP
Type: cell-based
Conditions: 2'3'cGAMP 15 μM, 24 h, luciferase reporter activity
Outline: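 THP1-Dual KO-IFNAR2 cells (2×10E6 cells/mL) exposed to compounds at 0.0017-100 μM final, then stimulated with 2′3′cGAMP (15 μM final) delivered by Lipofectamine 2000 transfection. After 24 h at 37° C, secreted luciferase in supernatant read by QUANTI-Luc luminescence; EC50 calculated.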

T1 sequence (Q86WV6 whole entry R71H/G230A/H232R/R293Q): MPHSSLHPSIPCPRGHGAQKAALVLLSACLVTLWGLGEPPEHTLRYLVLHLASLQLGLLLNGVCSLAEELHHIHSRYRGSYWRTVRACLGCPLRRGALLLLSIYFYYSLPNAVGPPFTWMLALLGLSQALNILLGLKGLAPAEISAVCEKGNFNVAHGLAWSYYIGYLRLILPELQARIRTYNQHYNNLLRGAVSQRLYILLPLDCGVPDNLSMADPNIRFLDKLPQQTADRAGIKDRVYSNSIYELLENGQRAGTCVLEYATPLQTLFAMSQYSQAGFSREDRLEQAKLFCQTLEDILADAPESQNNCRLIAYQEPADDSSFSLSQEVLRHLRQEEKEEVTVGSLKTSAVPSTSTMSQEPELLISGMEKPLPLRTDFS

Row | SMILES | EC50
1 | O=C(Nc1ccc(N2CCC(F)(F)CC2)nc1)Nc1c[nH]c2cc(Cl)c(Cl)cc12 [Compound 128, 1-(5,6-dichloro-1H-indol-3-yl)-3-(6-(4,4-difluoropiperidin-1-yl)pyridin-3-yl)urea] | 1000 to 5000 nM
2 | COCCO[C@@H]1CCN(c2ncc(NC(=O)Nc3c[nH]c4cc(F)c(F)cc34)cc2C)C1 [Compound 152, (R)-1-(5,6-difluoro-1H-indol-3-yl)-3-(6-(3-(2-methoxyethoxy)pyrrolidin-1-yl)-5-methylpyridin-3-yl)urea] | 1000 to 5000 nM
3 | O=C(Nc1cnc(C2CCN(CC(F)(F)F)CC2)c(F)c1)Nc1c[nH]c2ccccc12 [Compound 271, 1-(5-fluoro-6-(1-(2,2,2-trifluoroethyl)piperidin-4-yl)pyridin-3-yl)-3-(1H-indol-3-yl)urea] | 200 to 1000 nM
4 | O=C(Nc1ccc(C2CC(F)(F)C2)c(F)c1)Nc1c[nH]c2ccccc12 [Compound 282, 1-(4-(3,3-difluorocyclobutyl)-3-fluorophenyl)-3-(1H-indol-3-yl)urea] | 200 to 1000 nM
5 | C[C@H]1CN(c2ncc(NC(=O)Nc3c[nH]c4cc(F)c(F)cc34)cc2Cl)CCO1 [Compound 188, (S)-1-(5-chloro-6-(2-methylmorpholino)pyridin-3-yl)-3-(5,6-difluoro-1H-indol-3-yl)urea] | 200 to 1000 nM
6 | COCCN1CCN(c2ncc(NC(=O)Nc3c[nH]c4cc(F)c(F)cc34)cc2C)CC1 [Compound 123, 1-(5,6-difluoro-1H-indol-3-yl)-3-(6-(4-(2-methoxyethyl)piperazin-1-yl)-5-methylpyridin-3-yl)urea] | 5000 to 100000 nM
7 | O=C(Nc1ccc(C2CCC(F)(F)CC2)nc1)Nc1c[nH]c2ccc(I)cc12 [Compound 192, 1-(6-(4,4-difluorocyclohexyl)pyridin-3-yl)-3-(5-iodo-1H-indol-3-yl)urea] | 40 to 200 nM
8 | CCN(C(=O)Nc1c[nH]c2ccc(Cl)cc12)c1cnc(C2CCN(CC(F)(F)F)CC2)c(Cl)c1 [Compound 229, 3-(5-chloro-1H-indol-3-yl)-1-(5-chloro-6-(1-(2,2,2-trifluoroethyl)piperidin-4-yl)pyridin-3-yl)-1-ethylurea] | 200 to 1000 nM
9 | O=C(Nc1cnc(N2CCOCC2)c(Cl)c1)Nc1c[nH]c2cc(F)c(F)cc12 [Compound 165, 1-(5-chloro-6-morpholinopyridin-3-yl)-3-(5,6-difluoro-1H-indol-3-yl)urea] | 200 to 1000 nM
10 | C[C@H]1CN(c2ncc(NC(=O)Nc3c[nH]c4ccc(Cl)cc34)cc2Cl)C[C@H](C)N1 [Compound 289, 1-(5-chloro-1H-indol-3-yl)-3-(5-chloro-6-((3S,5S)-3,5-dimethylpiperazin-1-yl)pyridin-3-yl)urea] | 5000 to 100000 nM
11 | O=C(Nc1cnc(C2CC(F)(F)C2)c(Cl)c1)Nc1c[nH]c2cc(F)c(F)cc12 [Compound 173, 1-(5-chloro-6-(3,3-difluorocyclobutyl)pyridin-3-yl)-3-(5,6-difluoro-1H-indol-3-yl)urea] | 200 to 1000 nM
12 | O=C(Nc1ccc(C2CC(F)(F)C2)c(Cl)c1)Nc1c[nH]c2ccccc12 [Compound 246, 1-(3-chloro-4-(3,3-difluorocyclobutyl)phenyl)-3-(1H-indol-3-yl)urea] | 40 to 200 nM
13 | O=C(Nc1cnc(N2CC3(CCOC3)C2)c(Cl)c1)Nc1c[nH]c2cc(F)c(F)cc12 [Compound 186, 1-(5-chloro-6-(6-oxa-2-azaspiro[3.4]octan-2-yl)pyridin-3-yl)-3-(5,6-difluoro-1H-indol-3-yl)urea] | 200 to 1000 nM
14 | O=C(Nc1cnc(N2CCC3(CC2)CC3)c(Cl)c1)Nc1c[nH]c2ccc(F)cc12 [Compound 239, 1-(5-chloro-6-(6-azaspiro[2.5]octan-6-yl)pyridin-3-yl)-3-(5-fluoro-1H-indol-3-yl)urea] | 40 to 200 nM
15 | O=C(Nc1cnc(N2CC3CCC(C2)O3)c(Cl)c1)Nc1c[nH]c2ccc(Cl)cc12 [Compound 285, 1-(6-(8-oxa-3-azabicyclo[3.2.1]octan-3-yl)-5-chloropyridin-3-yl)-3-(5-chloro-1H-indol-3-yl)urea] | 40 to 200 nM
16 | O=C(Nc1ccnc(C2CCC(F)(F)CC2)c1)Nc1c[nH]c2cc(F)c(F)cc12 [Compound 220, 1-(5,6-difluoro-1H-indol-3-yl)-3-(2-(4,4-difluorocyclohexyl)pyridin-4-yl)urea] | 200 to 1000 nM
17 | Cc1cc(NC(=O)Nc2c[nH]c3cc(F)c(F)cc23)cnc1C1CCN(CC(F)(F)F)CC1 [Compound 166, 1-(5,6-difluoro-1H-indol-3-yl)-3-(5-methyl-6-(1-(2,2,2-trifluoroethyl)piperidin-4-yl)pyridin-3-yl)urea] | 200 to 1000 nM
18 | O=C(Nc1ccc(N2CC3(C2)CC(F)(F)C3)nc1)Nc1c[nH]c2ccc(Cl)cc12 [Compound 155, 1-(5-chloro-1H-indol-3-yl)-3-(6-(6,6-difluoro-2-azaspiro[3.3]heptan-2-yl)pyridin-3-yl)urea] | 40 to 200 nM
19 | C[C@@H]1CN(c2ncc(NC(=O)Nc3c[nH]c4ccc(Cl)cc34)cc2Cl)C[C@H](C)N1 [Compound 288, 1-(5-chloro-1H-indol-3-yl)-3-(5-chloro-6-(cis-3,5-dimethylpiperazin-1-yl)pyridin-3-yl)urea] | 5000 to 100000 nM
20 | CS(=O)(=O)c1ccc2[nH]cc(NC(=O)Nc3cnc(N4CCC(F)(F)CC4)c(Cl)c3)c2c1 [Compound 171, 1-(5-chloro-6-(4,4-difluoropiperidin-1-yl)pyridin-3-yl)-3-(5-(methylsulfonyl)-1H-indol-3-yl)urea] | 5000 to 100000 nM
21 | CCc1cc(NC(=O)Nc2c[nH]c3ccc(F)cc23)cnc1N1CCC(F)(F)CC1 [Compound 132, 1-(6-(4,4-difluoropiperidin-1-yl)-5-ethylpyridin-3-yl)-3-(5-fluoro-1H-indol-3-yl)urea] | 40 to 200 nM
22 | Cc1cc(NC(=O)Nc2c[nH]c3cc(F)c(F)cc23)cnc1N1CCO[C@@H](C)C1 [Compound 151, (S)-1-(5,6-difluoro-1H-indol-3-yl)-3-(5-methyl-6-(2-methylmorpholino)pyridin-3-yl)urea] | 200 to 1000 nM
23 | O=C(Nc1cnc(N2CCC(F)(F)CC2)nc1)Nc1c[nH]c2ccc(Cl)cc12 [Compound 180, 1-(5-chloro-1H-indol-3-yl)-3-(2-(4,4-difluoropiperidin-1-yl)pyrimidin-5-yl)urea] | 40 to 200 nM

Second part, the molecule after the results:

Row | EC50 | SMILES
24 | 40 to 200 nM | C[C@H]1CN(c2ncc(NC(=O)Nc3c[nH]c4ccc(Cl)cc34)cc2Cl)C[C@H](C)O1 [Compound 286, 1-(5-chloro-1H-indol-3-yl)-3-(5-chloro-6-((2S,6S)-2,6-dimethylmorpholino)pyridin-3-yl)urea]
25 | 40 to 200 nM | C[C@H]1CN(c2ncc(NC(=O)Nc3c[nH]c4cc(F)c(F)cc34)cc2Cl)C[C@H](C)O1 [Compound 147, 1-(5-chloro-6-((2S,6S)-2,6-dimethylmorpholino)pyridin-3-yl)-3-(5,6-difluoro-1H-indol-3-yl)urea]
26 | 40 to 200 nM | Cc1cc(NC(=O)Nc2c[nH]c3ccc(F)cc23)cnc1N1CCC(F)(F)CC1 [Compound 195, 1-(6-(4,4-difluoropiperidin-1-yl)-5-methylpyridin-3-yl)-3-(5-fluoro-1H-indol-3-yl)urea]
27 | 40 to 200 nM | N#Cc1cc(NC(=O)Nc2c[nH]c3ccc(Cl)cc23)cnc1C1CC(F)(F)C1 [Compound 257, 1-(5-chloro-1H-indol-3-yl)-3-(5-cyano-6-(3,3-difluorocyclobutyl)pyridin-3-yl)urea]
28 | 40 to 200 nM | O=C(Nc1cnc(N2CCN(CC3CC3)CC2)c(Cl)c1)Nc1c[nH]c2ccc(Cl)cc12 [Compound 260, 1-(5-chloro-1H-indol-3-yl)-3-(5-chloro-6-(4-(cyclopropylmethyl)piperazin-1-yl)pyridin-3-yl)urea]
29 | 40 to 200 nM | C[C@@H]1CN(c2ncc(NC(=O)Nc3c[nH]c4cc(F)c(F)cc34)cc2Cl)C[C@H](C)O1 [Compound 146, 1-(5-chloro-6-((2R,6S)-2,6-dimethylmorpholino)pyridin-3-yl)-3-(5,6-difluoro-1H-indol-3-yl)urea]
30 | 40 to 200 nM | CC1(C)CN(c2ncc(NC(=O)Nc3c[nH]c4cc(F)c(F)cc34)cc2F)CCO1 [Compound 290, 1-(5,6-difluoro-1H-indol-3-yl)-3-(6-(2,2-dimethylmorpholino)-5-fluoropyridin-3-yl)urea]
31 | 40 to 200 nM | O=C(Nc1cc(Cl)c(C2CCC(F)(F)CC2)cn1)Nc1c[nH]c2ccc(F)cc12 [Compound 287, 1-(4-chloro-5-(4,4-difluorocyclohexyl)pyridin-2-yl)-3-(5-fluoro-1H-indol-3-yl)urea]
32 | 40 to 200 nM | CO[C@H]1CCCN(c2ncc(NC(=O)Nc3c[nH]c4cc(F)c(F)cc34)cc2Cl)C1 [Compound 148, (S)-1-(5-chloro-6-(3-methoxypiperidin-1-yl)pyridin-3-yl)-3-(5,6-difluoro-1H-indol-3-yl)urea]
33 | 40 to 200 nM | COC(=O)c1cc(NC(=O)Nc2c[nH]c3ccccc23)cnc1C1CCC(F)(F)CC1 [Compound 265, methyl 5-(3-(1H-indol-3-yl)ureido)-2-(4,4-difluorocyclohexyl)nicotinate]
34 | 40 to 200 nM | O=C(Nc1cnc(N2CCN(CCC(F)(F)F)CC2)c(Cl)c1)Nc1c[nH]c2ccc(F)cc12 [Compound 245, 1-(5-chloro-6-(4-(3,3,3-trifluoropropyl)piperazin-1-yl)pyridin-3-yl)-3-(5-fluoro-1H-indol-3-yl)urea]
35 | 40 to 200 nM | O=C(Nc1cnc(C2CCN(CCC(F)(F)F)C2)c(Cl)c1)Nc1c[nH]c2ccc(Cl)cc12 (stereo not shown) [Compound 242, 1-(5-chloro-1H-indol-3-yl)-3-(5-chloro-6-(1-(3,3,3-trifluoropropyl)pyrrolidin-3-yl)pyridin-3-yl)urea]
36 | 40 to 200 nM | Cc1cc(NC(=O)Nc2c[nH]c3ccc(Cl)cc23)cnc1C1CCC(F)(F)CC1 [Compound 156, 1-(5-chloro-1H-indol-3-yl)-3-(6-(4,4-difluorocyclohexyl)-5-methylpyridin-3-yl)urea]
37 | 40 to 200 nM | Cc1cc(NC(=O)Nc2c[nH]c3ccc(Br)cc23)cnc1N1CCC(F)(F)CC1 [Compound 184, 1-(5-bromo-1H-indol-3-yl)-3-(6-(4,4-difluoropiperidin-1-yl)-5-methylpyridin-3-yl)urea]
